Data reported in ChEMBL document CHEMBL1201862, “PubChem BioAssay data set” (2004).
Values belong to the molecule of their own block, whether it stands above or below them. Activity calls are given as the source filed them.

Key:
[1] = target: Glyceraldehyde-3-phosphate dehydrogenase (Homo sapiens, UniProt P04406)
[2] = target: T1, Dual specificity protein phosphatase 6 (Rattus norvegicus, UniProt Q64346); assay type: functional
[3] = target: T2, Tyrosine-protein phosphatase non-receptor type 7 (Homo sapiens, UniProt P35236); assay type: functional
T2 sequence (P35236 whole entry): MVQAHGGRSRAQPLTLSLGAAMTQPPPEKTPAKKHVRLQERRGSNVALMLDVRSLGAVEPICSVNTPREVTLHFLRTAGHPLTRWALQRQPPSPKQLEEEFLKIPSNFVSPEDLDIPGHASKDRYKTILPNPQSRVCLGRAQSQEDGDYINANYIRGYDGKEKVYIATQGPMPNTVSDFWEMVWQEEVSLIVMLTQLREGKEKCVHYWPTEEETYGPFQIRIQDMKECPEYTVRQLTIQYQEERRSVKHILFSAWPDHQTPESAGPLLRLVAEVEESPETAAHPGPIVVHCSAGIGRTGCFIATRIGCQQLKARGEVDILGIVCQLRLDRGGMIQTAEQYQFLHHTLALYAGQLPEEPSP

[4] = target: T1, Dual specificity protein phosphatase 6
Escherichia coli = assay: microbe, parasite or virus in culture
BJ [5] = assay: cytotoxicity toward BJ-TERT-LT-ST fibroblasts, dose response, cell-based, RAS-independent, luminescence (AID 1935); assay type: functional; conditions: Homo sapiens;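 also: BJ fibroblasts immortalized with TERT plus LT and ST oncogenes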
BJ [6] = assay: cells; assay type: functional, cell-based; conditions: Homo sapiens
[7] = target: T3, Microphthalmia-associated transcription factor (Homo sapiens, UniProt O75030); assay: TRPM1 promoter luciferase signal decrease, dose response, MITF inhibitor project, cell-based, SK-MEL-5, cherry-picked, set 3 (AID 493073); assay type: functional
T3 sequence (O75030 whole entry): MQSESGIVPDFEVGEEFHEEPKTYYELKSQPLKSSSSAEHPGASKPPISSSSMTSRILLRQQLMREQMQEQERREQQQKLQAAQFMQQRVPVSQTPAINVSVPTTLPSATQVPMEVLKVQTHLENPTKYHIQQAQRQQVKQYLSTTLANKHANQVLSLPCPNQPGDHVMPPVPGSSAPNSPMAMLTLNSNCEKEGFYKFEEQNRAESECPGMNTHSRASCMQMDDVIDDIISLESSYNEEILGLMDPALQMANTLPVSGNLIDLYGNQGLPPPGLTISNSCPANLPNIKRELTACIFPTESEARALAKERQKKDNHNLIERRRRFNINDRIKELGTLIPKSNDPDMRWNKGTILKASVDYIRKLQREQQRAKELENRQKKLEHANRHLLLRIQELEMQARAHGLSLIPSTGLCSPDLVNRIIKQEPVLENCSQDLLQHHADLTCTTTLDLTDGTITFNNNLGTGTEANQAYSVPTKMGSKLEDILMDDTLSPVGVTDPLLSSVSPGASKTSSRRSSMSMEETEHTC

A-375 [8] = assay: A375 melanoma cell viability reduction, dose response, counter-screen for MITF modulator project, cherry-pick samples, set 2 (AID 540335); assay type: functional, cell-based; conditions: Homo sapiens
[9] = cytotoxicity toward DRD oncogenic fibroblasts, dose response, cell-based, non-viral oncogenic, luminescence (AID 1934); assay type: functional; conditions: Homo sapiens
BJ [10] = assay: cytotoxicity toward Ras-transformed BJeLR fibroblasts, dose response, cell-based, alamar blue fluorescence, cherrypicked samples (AID 2631); assay type: functional; conditions: Homo sapiens;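 also: confirmatory dose-response assay in RAS-dependent BJ fibroblasts engineered with TERT, LT and ST, with cytotoxicity read by fluorescence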
BJ [11] = assay: cytotoxicity toward BJ-TERT fibroblasts, dose response, cell-based, RAS-independent, luminescence (AID 1933); assay type: functional; conditions: Homo sapiens
A-375 [12] = assay: MITF: Counter assay: A375 proliferation Measured in Cell-Based System Using Plate Reader - 2084-03_Inhibitor_Dose_DryPowder_Activity. [Related pubchem assays (depositor defined):AID488944]; assay type: functional; conditions: Homo sapiens
[13] = Luminescence Cell-Based Dose Confirmation HTS to Identify Inhibitors of Platelet Dense Granule Release. [Related pubchem assays: 1663 (Primary HTS), 1678 (Summary of Project)]; assay type: functional
[14] = target: Luciferin 4-monooxygenase (Photinus pyralis, UniProt P08659); assay: firefly luciferase enzyme inhibitors, dose response, biochemical, luminescence (AID 1891)
Chain of Luciferin 4-monooxygenase (P08659 whole entry): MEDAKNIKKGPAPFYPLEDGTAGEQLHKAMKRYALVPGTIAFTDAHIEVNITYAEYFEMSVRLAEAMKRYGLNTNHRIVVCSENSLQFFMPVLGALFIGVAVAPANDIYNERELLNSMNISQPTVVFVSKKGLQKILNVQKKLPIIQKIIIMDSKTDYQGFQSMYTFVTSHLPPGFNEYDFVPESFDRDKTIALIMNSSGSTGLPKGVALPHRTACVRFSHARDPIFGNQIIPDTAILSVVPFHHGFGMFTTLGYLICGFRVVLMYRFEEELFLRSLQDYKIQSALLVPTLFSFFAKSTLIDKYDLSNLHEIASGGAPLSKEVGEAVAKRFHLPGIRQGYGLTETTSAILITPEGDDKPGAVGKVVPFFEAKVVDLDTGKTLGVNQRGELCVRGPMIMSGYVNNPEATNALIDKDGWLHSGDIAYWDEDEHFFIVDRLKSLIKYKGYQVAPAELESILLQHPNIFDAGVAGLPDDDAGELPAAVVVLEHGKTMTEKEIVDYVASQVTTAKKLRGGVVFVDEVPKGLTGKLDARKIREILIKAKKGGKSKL

Cytochrome P450 2C19 = Cytochrome P450 2C19 (Homo sapiens, UniProt P33261); assay: Cytochrome panel assay with activity outcomes. Panel member name: p450-cyp2c19 Compounds with AC50 equal or less than 10 uM are considered active; assay type: functional
Chain of Cytochrome P450 2C19 (P33261 whole entry): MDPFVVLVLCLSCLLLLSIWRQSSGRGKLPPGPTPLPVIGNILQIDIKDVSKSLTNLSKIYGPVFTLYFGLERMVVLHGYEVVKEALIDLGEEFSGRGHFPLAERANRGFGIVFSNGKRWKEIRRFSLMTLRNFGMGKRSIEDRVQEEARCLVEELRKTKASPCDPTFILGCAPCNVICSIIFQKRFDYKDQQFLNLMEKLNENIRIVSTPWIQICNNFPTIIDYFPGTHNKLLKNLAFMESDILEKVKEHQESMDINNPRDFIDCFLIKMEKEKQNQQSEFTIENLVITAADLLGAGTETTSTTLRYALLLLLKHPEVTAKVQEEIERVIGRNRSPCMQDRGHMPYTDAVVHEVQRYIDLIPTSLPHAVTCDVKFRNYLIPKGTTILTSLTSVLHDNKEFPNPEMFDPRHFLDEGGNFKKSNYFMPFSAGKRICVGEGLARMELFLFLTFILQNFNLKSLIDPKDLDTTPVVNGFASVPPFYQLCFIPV

Cytochrome P450 2D6 = Cytochrome P450 2D6 (Homo sapiens, UniProt P10635);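 also: CYP2D6 member of a cytochrome P450 panel assay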
Chain of Cytochrome P450 2D6 (P10635 whole entry): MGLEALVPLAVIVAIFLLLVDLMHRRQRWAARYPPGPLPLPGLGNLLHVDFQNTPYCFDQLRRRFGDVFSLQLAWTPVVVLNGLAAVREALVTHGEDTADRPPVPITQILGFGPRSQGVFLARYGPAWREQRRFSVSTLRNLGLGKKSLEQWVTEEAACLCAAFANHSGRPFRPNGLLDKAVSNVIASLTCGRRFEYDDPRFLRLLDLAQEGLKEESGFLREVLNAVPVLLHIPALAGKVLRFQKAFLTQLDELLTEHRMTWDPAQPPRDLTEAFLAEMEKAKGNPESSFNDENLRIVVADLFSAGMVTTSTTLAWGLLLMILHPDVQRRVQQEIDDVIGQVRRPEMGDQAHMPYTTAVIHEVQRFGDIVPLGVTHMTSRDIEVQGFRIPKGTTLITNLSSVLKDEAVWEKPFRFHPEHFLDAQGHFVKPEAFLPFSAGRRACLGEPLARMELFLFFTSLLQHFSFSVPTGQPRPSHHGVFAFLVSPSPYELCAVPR

Cytochrome P450 1A2 = target: T4, Cytochrome P450 1A2 (Homo sapiens, UniProt P05177);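 also: PubChem cytochrome P450 panel assay, CYP1A2 panel member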
T4 sequence (P05177 whole entry): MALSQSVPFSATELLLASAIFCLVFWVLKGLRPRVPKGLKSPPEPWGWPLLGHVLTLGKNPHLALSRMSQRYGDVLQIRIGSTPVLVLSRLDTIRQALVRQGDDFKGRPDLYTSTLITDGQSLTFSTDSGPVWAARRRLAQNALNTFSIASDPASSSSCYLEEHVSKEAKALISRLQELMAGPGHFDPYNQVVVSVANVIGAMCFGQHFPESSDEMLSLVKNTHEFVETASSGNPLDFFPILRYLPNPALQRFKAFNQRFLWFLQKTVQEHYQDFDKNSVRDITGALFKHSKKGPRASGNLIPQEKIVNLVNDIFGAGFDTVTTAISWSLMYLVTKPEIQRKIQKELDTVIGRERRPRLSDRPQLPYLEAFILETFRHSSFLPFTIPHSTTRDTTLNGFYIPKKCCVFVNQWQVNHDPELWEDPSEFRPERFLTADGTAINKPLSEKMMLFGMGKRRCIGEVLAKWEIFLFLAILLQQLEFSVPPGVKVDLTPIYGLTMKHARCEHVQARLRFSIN

Cytochrome P450 3A4 = Cytochrome P450 3A4 (Homo sapiens, UniProt P08684);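 also: CYP3A4 tested as one member of a cytochrome P450 panel screen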
Chain of Cytochrome P450 3A4 (P08684 whole entry): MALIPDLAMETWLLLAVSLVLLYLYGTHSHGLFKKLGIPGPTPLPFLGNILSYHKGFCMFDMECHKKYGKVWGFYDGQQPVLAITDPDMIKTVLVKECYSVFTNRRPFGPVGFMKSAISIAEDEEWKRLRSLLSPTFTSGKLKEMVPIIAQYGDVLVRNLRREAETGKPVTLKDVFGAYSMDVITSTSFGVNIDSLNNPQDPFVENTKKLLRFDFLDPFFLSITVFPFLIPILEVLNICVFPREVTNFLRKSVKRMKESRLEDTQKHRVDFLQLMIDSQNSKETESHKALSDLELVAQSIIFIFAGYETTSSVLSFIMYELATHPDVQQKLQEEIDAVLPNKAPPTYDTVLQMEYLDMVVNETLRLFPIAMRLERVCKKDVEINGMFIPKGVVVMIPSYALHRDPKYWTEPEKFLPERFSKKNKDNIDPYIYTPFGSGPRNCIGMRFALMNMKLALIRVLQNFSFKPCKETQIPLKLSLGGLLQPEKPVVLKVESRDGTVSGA

T1 sequence (Q64346 whole entry): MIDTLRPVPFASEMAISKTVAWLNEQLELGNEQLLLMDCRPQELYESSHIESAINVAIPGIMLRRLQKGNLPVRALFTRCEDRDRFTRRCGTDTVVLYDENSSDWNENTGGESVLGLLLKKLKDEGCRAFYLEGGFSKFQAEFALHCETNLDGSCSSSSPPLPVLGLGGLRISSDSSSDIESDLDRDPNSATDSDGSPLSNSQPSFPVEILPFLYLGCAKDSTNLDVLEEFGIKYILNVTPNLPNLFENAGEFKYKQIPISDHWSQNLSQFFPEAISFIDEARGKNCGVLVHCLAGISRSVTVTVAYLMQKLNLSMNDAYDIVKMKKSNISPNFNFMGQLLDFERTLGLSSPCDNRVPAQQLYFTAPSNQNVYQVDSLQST
Chain of Glyceraldehyde-3-phosphate dehydrogenase (P04406 whole entry): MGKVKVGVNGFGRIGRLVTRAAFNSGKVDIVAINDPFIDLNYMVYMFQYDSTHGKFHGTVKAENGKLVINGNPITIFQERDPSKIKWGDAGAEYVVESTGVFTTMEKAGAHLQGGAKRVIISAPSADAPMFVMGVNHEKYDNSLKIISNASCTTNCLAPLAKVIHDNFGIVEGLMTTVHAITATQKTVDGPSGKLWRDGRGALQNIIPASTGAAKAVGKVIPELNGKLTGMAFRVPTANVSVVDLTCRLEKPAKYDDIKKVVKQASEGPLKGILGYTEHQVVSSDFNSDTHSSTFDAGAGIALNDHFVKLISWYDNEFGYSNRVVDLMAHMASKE

IC50 [1]: > 100 µM (not active) | IC50 [2]: > 100 µM (inactive) | IC50 [3]: 0.792 µM (active) | IC50 [4]: > 100 µM (inactive)
Compound: CCCCCCCCCCCCCCCCCCC#CCCCCCCCC(=O)O

Compound: CC1CCN(CC(=O)c2ccccc2Cl)CC1
AC50 (Escherichia coli): 34.2 µM (active)

Compound: N#CCc1ccc(NC(=O)/C=C/c2ccc([N+](=O)[O-])o2)cc1
EC50 (BJ [5]): 5.37 µM (inconclusive) | EC50 (BJ [6]): 3.87 µM (inconclusive) | AC50 [7]: 4.97 µM (active) | AC50 (A-375 [8]): 91.2 µM (active) | EC50 [9]: 3.12 µM (active) | EC50 (BJ [10]): 1.41 µM (active) | EC50 (BJ [11]): 4.8 µM (active)

Compound: N=C(NOC(=O)c1ccccc1Cl)c1ccccn1
AC50 (A-375 [12]): 42.8 µM (active) | AC50 [7]: 8.87 µM (active) | EC50 [13]: 8.3 µM (active) | EC50 [14]: 3.94 µM (active)

AC50 (Cytochrome P450 2C19): inactive | AC50 (Cytochrome P450 2D6): inactive | AC50 (Cytochrome P450 1A2): inactive | AC50 (Cytochrome P450 3A4): inactive
Compound: O=C(O)c1cc(-c2ccc(F)cc2F)ccc1O [DIFLUNISAL]
